Tests used:
Assay in all cases: In vitro cell growth inhibition assay (MTT)
Type in all cases: cell-based, human
A2780 = A2780 human ovarian cancer cell line, 48 h, MTT; read-out: IC50 A2780
Description: (§1) 5000 tumor cells per well were seeded into 96-well plate and allowed to adhere overnight. Cells were treated with various concentrations of tested compounds or DMSO (0.2%, as negative control) for 48 h. Then, the medium along with tested compounds or DMSO was discarded and […] per well MTT containing medium (0.5 mg/mL) was added. After incubation at 37° C. for 4 h, the MTT-containing medium was replaced by DMSO (150 μL per well) to dissolve the formazan crystals. Absorbance of the resulting solution was measured by microplate reader (Biotech ELx800) at 540 nm wavelength. Growth inhibition rates were calculated with the absorbance. Half maximal inhibitory concentration (IC50) of each compound was calculated using GraphPad Prism, version 6.0.

Hela = Hela human cervical cancer cell line, 48 h, MTT; read-out: IC50 Hela
Description: as §1

MDA-MB-231 = MDA-MB-231 human breast cancer cell line, 48 h, MTT; read-out: IC50 MDA-MB-231
Description: as §1

SKOV3 = details: SK-OV-3; SKOV-3 human ovarian cancer cell line, 48 h, MTT; read-out: IC50 SKOV3
Description: as §1

Row | Structure (SMILES) | IC50 (A2780) [µM] | IC50 (Hela) [µM] | IC50 (MDA-MB-231) [µM] | IC50 (SKOV3) [µM]
1 | COc1ccc([C@H]2[C@@H](C)C(=O)N2c2cc(OC)c(OC)c(OC)c2)cc1OS(=O)(=O)F [Compound 108, 2-methoxy-5-((2R,3R)-3-methyl-4-oxo-1-(3,4,5-trimethoxyphenyl)azetidin-2-yl)phenyl sulfofluoridate] | 0.035 | 0.054 | 0.04 | 0.062
2 | C=C1CN(c2cc(OC)c(OC)c(OC)c2)[C@H]1c1ccc(OC)c(O)c1 [Compound 91, (S)-2-methoxy-5-(3-methylene-1-(3,4,5-trimethoxyphenyl)azetidin-2-yl)phenol] |  | 0.252 |  | 0.246
3 | C=C1C(=O)N(c2cc(OC)c(OC)c(OC)c2)[C@H]1c1ccc(OC)c(OCCO)c1 [Compound 8, (S)-4-(3-(2-hydroxyethoxy)-4-methoxyphenyl)-3-methylene-1-(3,4,5-trimethoxyphenyl)azetidin-2-one] | 0.344 | 0.925 | 0.845 | 0.832
4 | C/C=C1\C(=O)N(c2cc(OC)c(OC)c(OC)c2)[C@H]1c1ccc(OC)c(O)c1 [Compound 55, (S,Z)-3-ethylidene-4-(3-hydroxy-4-methoxyphenyl)-1-(3,4,5-trimethoxyphenyl)azetidin-2-one] |  | 2.64 |  | 2.76
5 | C=C1C(=O)N(c2cc(OC)c(OC)c(OC)c2)[C@H]1c1ccc(C)cc1 [Compound 87, (S)-3-methylene-4-(p-tolyl)-1-(3,4,5-trimethoxyphenyl)azetidin-2-one] | 0.127 | 0.209 | 0.193 | 0.265
6 | C=C1C(=O)N(c2cc(OC)c(OC)c(OC)c2)[C@H]1c1ccc(OC)c(OS(=O)(=O)F)c1 [Compound 107, (S)-2-methoxy-5-(3-methylene-4-oxo-1-(3,4,5-trimethoxyphenyl)azetidin-2-yl)phenyl sulfofluoridate] | 0.121 | 0.174 | 0.216 | 0.178
7 | COc1ccc([C@H]2/C(=C/c3ccc(C(C)(C)C)cc3)C(=O)N2c2cc(OC)c(OC)c(OC)c2)cc1O [Compound 58, (S,Z)-3-(4-(tert-butyl)benzylidene)-4-(3-hydroxy-4-methoxyphenyl)-1-(3,4,5-trimethoxyphenyl)azetidin-2-one] | > 20 | > 20 | > 20 | > 20
8 | COc1ccc([C@H]2[C@@H](Cc3ccc(O)cc3)C(=O)N2c2cc(OC)c(OC)c(OC)c2)cc1O [Compound 60, (3R,4R)-4-(3-hydroxy-4-methoxyphenyl)-3-(4-hydroxybenzyl)-1-(3,4,5-trimethoxyphenyl)azetidin-2-one] |  | 7.26 |  | 2.85
9 | C=C1C(=O)N(c2cc(OC)c(OC)c(OC)c2)[C@H]1c1ccc(OC)c(F)c1 [Compound 38, (S)-4-(3-fluoro-4-methoxyphenyl)-3-methylene-1-(3,4,5-trimethoxyphenyl)azetidin-2-one] | 0.121 | 0.131 | 0.111 | 0.134
10 | C=C1C(=O)N(c2cc(OC)c(OC)c(OC)c2)[C@H]1c1ccc(OC)c(OCC(=O)OCC)c1 [Compound 12, (5)-ethyl 2-(2-methoxy-5-(3-methylene-4-oxo-1-(3,4,5-trimethoxyphenyl)azetidin-2-yl)phenoxy)acetate] | > 20 | > 20 | > 20 | > 20
11 | COc1ccc([C@H]2[C@H](N)C(=O)N2c2cc(OC)c(OC)c(OC)c2)cc1OCc1ccccc1 [Compound 76, (3S,4S)-3-amino-4-(3-(benzyloxy)-4-methoxyphenyl)-1-(3,4,5-trimethoxyphenyl)azetidin-2-one] |  | 7.46 |  | 8.54
12 | C=CC(=O)OC[C@@]1(OC(=O)C=C)C(=O)N(c2cc(OC)c(OC)c(OC)c2)[C@H]1c1ccc(OC)c(OC(=O)C=C)c1 [Compound 89, ((2S,3R)-3-(acryloyloxy)-2-(3-(acryloyloxy)-4-methoxyphenyl)-4-oxo-1-(3,4,5-trimethoxyphenyl)azetidin-3-yl)methyl acrylate] |  | 2.45 |  | 2.23
13 | COc1ccc([C@@H]2[C@H](CO)C(=O)N2c2cc(OC)c(OC)c(OC)c2)cc1O [Compound 100, (3R,4S)-4-(3-hydroxy-4-methoxyphenyl)-3-(hydroxymethyl)-1-(3,4,5-trimethoxyphenyl)azetidin-2-one] | 0.364 | 0.332 | 0.383 | 
14 | COc1ccc([C@H]2[C@@H](O)C(=O)N2c2cc(OC)c(OC)c(OC)c2)cc1OCc1ccccc1 [Compound 72, (3R,4S)-4-(3-(benzyloxy)-4-methoxyphenyl)-3-hydroxy-1-(3,4,5-trimethoxyphenyl)azetidin-2-one] |  | > 10 |  | > 10
15 | COc1ccc([C@@H]2N(c3cc(OC)c(OC)c(OC)c3)C(=O)[C@]2(O)CO)cc1OCc1ccccc1 [Compound 84, (3R,4S)-4-(3-(benzyloxy)-4-methoxyphenyl)-3-hydroxy-3-(hydroxymethyl)-1-(3,4,5-trimethoxyphenyl)azetidin-2-one] |  | > 10 |  | 2.32
16 | COc1ccc([C@H]2[C@H](N=[N+]=[N-])C(=O)N2c2cc(OC)c(OC)c(OC)c2)cc1OCc1ccccc1 [Compound 75, (3S,4S)-3-azido-4-(3-(benzyloxy)-4-methoxyphenyl)-1-(3,4,5-trimethoxyphenyl)azetidin-2-one] |  | > 10 |  | > 10
17 | COc1ccc([C@H]2C(=O)C(=O)N2c2cc(OC)c(OC)c(OC)c2)cc1OC(C)=O [Compound 93, (S)-5-(3,4-dioxo-1-(3,4,5-trimethoxyphenyl)azetidin-2-yl)-2-methoxyphenyl acetate] |  | > 10 |  | > 10
18 | COc1ccc([C@H]2[C@@H](OS(C)(=O)=O)C(=O)N2c2cc(OC)c(OC)c(OC)c2)cc1O [Compound 74, (3R,4S)-2-(3-(hydroxy)-4-methoxyphenyl)-4-oxo-1-(3,4,5-trimethoxyphenyl)azetidin-3-yl methanesulfonate] |  | 0.754 |  | 0.98
19 | C/C=C1/C(=O)N(c2cc(OC)c(OC)c(OC)c2)[C@H]1c1ccc(OC)c(O)c1 [Compound 56, (S,E)-3-ethylidene-4-(3-hydroxy-4-methoxyphenyl)-1-(3,4,5-trimethoxyphenyl)azetidin-2-one] |  | 2.92 |  | 2.83
20 | C=CC(=O)N[C@@H]1C(=O)N(c2cc(OC)c(OC)c(OC)c2)[C@H]1c1ccc(OC)c(OC(=O)C=C)c1 [Compound 90, 5-((2S,3S)-3-acrylamido-4-oxo-1-(3,4,5-trimethoxyphenyl)azetidin-2-yl)-2-methoxyphenyl acrylate] |  | 0.025 |  | 0.016
21 | COc1ccc([C@@H]2N(c3cc(OC)c(OC)c(OC)c3)C(=O)[C@]2(C)O)cc1O [Compound 95, (3R,4S)-3-hydroxy-4-(3-hydroxy-4-methoxyphenyl)-3-methyl-1-(3,4,5-trimethoxyphenyl)azetidin-2-one] |  | 0.213 |  | 0.103
22 | COc1ccc([C@H]2[C@@H](CO)C(=O)N2c2cc(OC)c(OC)c(OC)c2)cc1O [Compound 68, (3S,4R)-4-(3-hydroxy-4-methoxyphenyl)-3-(hydroxymethyl)-1-(3,4,5-trimethoxyphenyl)azetidin-2-one] | 0.22 | 0.358 | 0.182 | 
23 | COc1ccc([C@@H]2N(c3cc(OC)c(OC)c(OC)c3)C(=O)[C@]23COC(=O)O3)cc1OC(C)=O [Compound 92, 5-((1S,4R)-3,6-dioxo-2-(3,4,5-trimethoxyphenyl)-5,7-dioxa-2-azaspiro[3.4]octan-1-yl)-2-methoxyphenyl acetate] |  | 1.57 |  | 1.28
24 | COc1ccc([C@@H]2N(c3cc(OC)c(OC)c(OC)c3)C(=O)[C@@]2(COC(C)=O)OC(C)=O)cc1OC(C)=O [Compound 83, ((2S,3R)-3-acetoxy-2-(3-acetoxy-4-methoxyphenyl)-4-oxo-1-(3,4,5-trimethoxyphenyl)azetidin-3-yl)methyl acetate] |  | > 10 |  | > 10
25 | COc1ccc([C@@H]2N(c3cc(OC)c(OC)c(OC)c3)C(=O)[C@]2(C)O)cc1OC(C)=O [Compound 94, 5-((2S,3R)-3-hydroxy-3-methyl-4-oxo-1-(3,4,5-trimethoxyphenyl)azetidin-2-yl)-2-methoxyphenyl acetate] |  | 0.094 |  | 0.147
26 | COc1ccc([C@@H]2N(c3cc(OC)c(OC)c(OC)c3)C(=O)[C@]2(O)CO)cc1OC(C)=O [Compound 82, 5-((2S,3R)-3-hydroxy-3-(hydroxymethyl)-4-oxo-1-(3,4,5-trimethoxyphenyl)azetidin-2-yl)-2-methoxyphenyl acetate] |  | 0.863 |  | 0.625
27 | COc1ccc([C@@H]2[C@@H](CO)C(=O)N2c2cc(OC)c(OC)c(OC)c2)cc1O [Compound 99, (3S,4S)-4-(3-hydroxy-4-methoxyphenyl)-3-(hydroxymethyl)-1-(3,4,5-trimethoxyphenyl)azetidin-2-one] | > 20 | > 20 | > 20 | 
28 | COc1ccc([C@H]2[C@@H](OS(C)(=O)=O)C(=O)N2c2cc(OC)c(OC)c(OC)c2)cc1OCc1ccccc1 [Compound 73, (3R,4S)-2-(3-(benzyloxy)-4-methoxyphenyl)-4-oxo-1-(3,4,5-trimethoxyphenyl)azetidin-3-yl methanesulfonate] |  | > 10 |  | > 10

From patent publication US20200392150A1, “Diaryl-B-Lactam Compound and Preparation Method and Pharmaceutical Use Thereof” (Fudan University, priority 2016, published 2020)
